Numbers after ± are expanded uncertainties.
Experiments:
[1] = Molar enthalpy of transition or fusion; details: Crystal; DSC
[2] = Crystal; DTA

| Molar enthalpy of transition or fusion [1] | Normal melting temperature [2] | SMILES |
| --- | --- | --- |
| 9.06 ± 0.574 kcal/mol | 160.0 ± 1.1 °C | COc1ccc2c(c1)c(CC(=O)O)c(C)n2C(=O)c1ccc(Cl)cc1 |
| 5.4 ± 0.335 kcal/mol | 128.6 ± 1.1 °C | NC(=O)c1cccnc1 [3-pyridinecarboxamide] |
